From PubChem BioAssay (NCI)
“And” between values parts separate entries of the source, which are not always exact repeats. Identical values can stand only once.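 Protocol summary: plate cells (96-well), add compound at 5 concentrations, incubate 48 h, interpolate endpoints linearly. At the GI50, growth is halved. TGI marks complete inhibition of growth.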

Tests used:
Test in all cases: NCI tumour cell line growth inhibition, 48 h
CCRF-CEM leukemia = test system: CCRF-CEM leukemia
COLO 205 colon = test system: COLO 205 colon
EKVX NSCLC = test system: EKVX NSCLC
HCC-2998 colon = test system: HCC-2998 colon
NCI/ADR-RES ovarian = test system: NCI/ADR-RES ovarian
OVCAR-5 ovarian = test system: OVCAR-5 ovarian
RXF 393 renal = test system: RXF 393 renal
SF-539 CNS = test system: SF-539 CNS
SK-MEL-5 melanoma = test system: SK-MEL-5 melanoma
UACC-62 melanoma = test system: UACC-62 melanoma

Compound	GI50 (CCRF-CEM leukemia)	GI50 (COLO 205 colon)	TGI (COLO 205 colon)	GI50 (EKVX NSCLC)	TGI (EKVX NSCLC)	GI50 (HCC-2998 colon)	TGI (HCC-2998 colon)	GI50 (NCI/ADR-RES ovarian)	TGI (NCI/ADR-RES ovarian)	GI50 (OVCAR-5 ovarian)	TGI (OVCAR-5 ovarian)	GI50 (RXF 393 renal)	TGI (RXF 393 renal)	GI50 (SF-539 CNS)	TGI (SF-539 CNS)	GI50 (SK-MEL-5 melanoma)	TGI (SK-MEL-5 melanoma)	GI50 (UACC-62 melanoma)	TGI (UACC-62 melanoma)	TGI (CCRF-CEM leukemia)
Clc1nc(Cl)c2ncn(CCOCCn3cnc4c(Cl)nc(Cl)nc43)c2n1	226 nM	0.204 µM	0.374 µM	1.31 µM	2.77 µM	213 nM	0.382 µM	0.216 µM	0.424 µM	0.227 µM	0.51 µM	222 nM	0.474 µM	170 nM	0.381 µM	0.37 µM	1.38 µM	198 nM	0.412 µM	
O=c1[nH]c2ccccc2n1C1CCN(CCCC(c2ccc(F)cc2)c2ccc(F)cc2)CC1	2300 nM	1.31 µM	2.58 µM and 3.31 µM	1.66 µM and 8.47 µM	4.54 µM and 22.7 µM	1500 nM	2.9 µM and 3.84 µM	1.46 µM and 3.2 µM	2.96 µM and 13.2 µM	1.74 µM	3.51 µM and 22.8 µM	1170 nM and 1930 nM	2.44 µM and 5.8 µM	1880 nM and 3350 nM	3.58 µM and 9.28 µM	1.42 µM and 2.13 µM	2.74 µM and 4.8 µM	1380 nM and 9920 nM	2.75 µM and 23.5 µM	6.76 µM and 30.3 µM
CC1=NNC(=S)NCCCN2CCN(CCCNC(=S)NN=C(C)C=NNC(=S)NCCCN3CCN(CCCNC(=S)NN=C1)CC3)CC2			> 100 µM		> 100 µM		> 100 µM		> 100 µM		> 100 µM		> 100 µM		> 100 µM		> 100 µM		> 100 µM	> 100 µM
Nc1nc2ccccc2c2c1S(=O)(=O)c1ccc(Cl)cc1C2=O	623 nM	1.94 µM	6.85 µM	1.84 µM	> 50 µM	2030 nM	29.8 µM	1.46 µM	6.27 µM	1.42 µM	4.62 µM	784 nM	2.05 µM	1300 nM	3.62 µM	2.02 µM	30.9 µM	1680 nM	24.8 µM	4 µM
C#CCNC(=O)NC(CCCCNC(=O)OCc1ccccc1)C(=O)OCc1ccccc1 (stereo not given)			46.9 µM		> 100 µM		> 74.1 µM		> 100 µM		> 100 µM		43.1 µM		71.9 µM		35.1 µM		33.6 µM	> 100 µM
COc1ccc(COc2cc3oc(=O)c4cc(C(C)O)ccc4c3cc2OC)cc1 (stereo not given)	> 21600 nM	> 22.7 µM	> 100 µM	19.7 µM	> 100 µM	> 31400 nM	> 100 µM	8.4 µM	44.4 µM	41.5 µM	> 100 µM	5330 nM	15.6 µM	9970 nM	33 µM	12.1 µM	> 40.7 µM	8470 nM	34 µM	> 100 µM
C=CCN(CC=C)C(=O)[C@H](CC)[C@@H]1CC[C@@H](C)[C@@H]([C@H](C)[C@@H](O)[C@@H](C)C(=O)[C@H](CC)C2O[C@]3(C=C[C@@H](O)[C@]4(CC[C@@](C)([C@H]5CC[C@](O)(CC)[C@H](C)O5)O4)O3)[C@H](C)C[C@@H]2C)O1 (stereo not given in full)	3190 nM	2.56 µM	6.23 µM	2.33 µM	9.07 µM	2410 nM	7.26 µM	2.7 µM	9.82 µM	2.25 µM	7.26 µM	1570 nM	3.47 µM	1970 nM	3.91 µM	1.72 µM	3.15 µM	1660 nM	4.09 µM	11.5 µM
COc1ccc2c(c1)C(=O)c1c-2c(=O)n(CCCN(C)C)c2cc(OC)c(OC)cc12	50 nM	12.6 µM	25.3 µM	16.5 µM	30.7 µM	14100 nM	27.3 µM	5.93 µM	23.6 µM	20.3 µM	35.7 µM	11200 nM	23.6 µM	3610 nM	14.9 µM	86.1 µM	> 100 µM	> 100000 nM	> 100 µM	12.2 µM
Cc1ccc(Cl)cc1-n1c(C)nc2c(cnn2-c2ccnc3c(C(F)(F)F)cccc23)c1=O	> 100000 nM	> 100 µM	> 100 µM	> 100 µM	> 100 µM	> 100000 nM	> 100 µM	> 100 µM	> 100 µM	> 100 µM	> 100 µM	> 100000 nM	> 100 µM	> 100000 nM	> 100 µM	> 100 µM	> 100 µM	> 100000 nM	> 100 µM	> 100 µM
O=S(=O)(NCCCNc1cc(-c2cn(-c3ccccc3)nc2-c2cccc(O)c2)ccn1)c1ccc(F)cc1	2450 nM	1.96 µM	3.87 µM	3.92 µM	64.4 µM	2200 nM	4.52 µM	3.24 µM	22.4 µM	3.33 µM	33.5 µM	3210 nM	14.6 µM	2990 nM	15.8 µM	3.06 µM	10.1 µM	2920 nM	12 µM	9.41 µM
COc1c(CC=C(C)C)c(O)c(C(CC(C)C)c2c(O)c(CC=C(C)C)c(O)c(C(C)=O)c2O)c(O)c1C(C)=O (stereo not given)			4.7 µM		11.4 µM		1.69 µM		10.2 µM		19.7 µM		11.1 µM		7.76 µM		5.04 µM		2.22 µM	1.65 µM
COc1ccc(S(=O)(=O)N2CCNCC2)cc1OC	> 100000 nM	> 100 µM	> 100 µM	> 100 µM	> 100 µM	> 100000 nM	> 100 µM	> 100 µM	> 100 µM	> 100 µM	> 100 µM	> 100000 nM	> 100 µM	> 100000 nM	> 100 µM	> 100 µM	> 100 µM	> 100000 nM	> 100 µM	> 100 µM
c1ccc2c(CNCCN3CCNCC3)c3ccccc3c(CNCCN3CCNCC3)c2c1	2300 nM	13.8 µM	> 100 µM	19.3 µM	61.3 µM	12700 nM	29.4 µM	> 100 µM	> 100 µM	3.99 µM	17.4 µM	25300 nM	81.9 µM	16400 nM	37 µM	15.6 µM	35.2 µM	21100 nM	44 µM	14.2 µM
CSC1=Nc2c(c(C)c(-c3ccccc3)n2COC(CO)CO)C2=NC(=O)CN12	> 100000 nM	> 100 µM	> 100 µM	> 100 µM	> 100 µM	> 100000 nM	> 100 µM	> 100 µM	> 100 µM	> 100 µM	> 100 µM	> 100000 nM	> 100 µM	> 100000 nM	> 100 µM	> 100 µM	> 100 µM	> 100000 nM	> 100 µM	> 100 µM
CCn1ccnc1C(=O)/C=C/c1ccc(CC(=O)Nc2ccc(F)cc2)cc1	4350 nM	4.29 µM	13.1 µM	3.59 µM	12.2 µM	5100 nM	> 16.7 µM	5.37 µM	> 16.7 µM	4.97 µM	> 16.7 µM	3390 nM	8.66 µM	2930 nM	6.15 µM	5.74 µM	> 16.7 µM	2830 nM	6.57 µM	16.3 µM
N#Cc1cccc(Nc2ncc(-c3ccccc3)o2)c1	20800 nM	14.8 µM	> 25 µM	11 µM	> 25 µM	> 23700 nM	> 25 µM	19.2 µM	> 25 µM	16.4 µM	> 25 µM	5550 nM	15.8 µM	10300 nM	> 25 µM	13 µM	> 25 µM	13100 nM	> 25 µM	> 25 µM
COc1cc2c(cc1NC(=O)C(Cl)Cl)-c1ccc(NC(=O)C(Cl)Cl)cc1C2	12100 nM	0.407 µM	1.1 µM	0.347 µM	1.32 µM	976 nM	2.38 µM	0.789 µM	4.42 µM	1.77 µM	4.75 µM	429 nM	1.66 µM	633 nM	2.22 µM	4.35 µM	18.3 µM	586 nM	2.07 µM	98.6 µM
Fc1ccc2nc(-c3nc(-c4ccccc4)n4ccccc34)[nH]c2c1	5280 nM	3.42 µM	13.1 µM			4110 nM	16.9 µM	2.23 µM	6.01 µM	3.07 µM	9.04 µM	2990 nM	10.2 µM	2320 nM	6.85 µM	1.55 µM	3.49 µM	1960 nM	4.96 µM	> 100 µM
CC(=O)N(O)c1ccc(/C=C/c2ccccc2)cc1	137 nM	3.34 µM	44 µM			1650 nM	3.76 µM	2.21 µM	44.1 µM	2.35 µM	9.46 µM	539 nM	1.9 µM	2430 nM	35.1 µM	6.05 µM	> 100 µM	1460 nM	4.69 µM	> 100 µM
